Measurements taken from patent publication US11197881B2 (CALIFORNIA INSTITUTE OF TECHNOLOGY, priority 2016, dated 2021).
“Also recorded” adds a separate entry of the source.

How the values were obtained:
[1] = tested on: mouse post-mitotic neurons; experiment: X chromosome reactivation (active PGK1 loci, MeCP2 mRNA) in mouse post-mitotic neurons having a silenced X chromosome; assay type: cell-based; conditions: simultaneous treatment with DNMT1 inhibitor 5-aza-2'-dc
Procedure: (§1) FIG. 7H is a graph of the percentage of reactivated cells (measured as the number of active phosphoglycerate kinase 1 (PGK1) loci for a population of 50 mouse post-mitotic neuronal cells having a silenced X chromosome after the simultaneous treatment of DMSO (as a control), the DNMT1 inhibitor (5-aza-2-dc) and the HDAC inhibitor SAHA or RGFP966 for 48 hours (h), 72 hours, and 7 days as indicated, with the number of active PGK1 loci greater than 2 shown in grey, the number of PGK1 loci equal to 2 shown in orange, and the number of PGK1 loci equal to 1 shown in blue, according to embodiments of the present invention.
FIG. 7I is a graph quantifying the expression level of MeCP2 mRNA in mouse post-mitotic neurons having a silenced X chromosome after simultaneous treatment with DMSO (control), the DNMT1 inhibitor (5-aza-2-dc) and the HDAC inhibitor SAHA or RGFP966 for 7 days for a population of 50 cells, with the relative expression calculated by normalizing reactivated female post-mitotic neurons to male post-mitotic neurons, according to embodiments of the present invention.
Cells were stained for target mRNAs (e.g., X-linked Gpc4 mRNA, X-linked MeCP2 mRNA, or as indicated) and siRNA-targeted mRNA by FISH and imaged. Images were then analyzed using Matlab R2013b (described below). […] The mRNA levels were quantified for 50 individual cells. […]

human fibroblast cells = experiment: X chromosome reactivation (active PGK1 loci, MeCP2 mRNA) in human fibroblast cells having a silenced X chromosome; assay type: cell-based; conditions: for percentage of reactivated human fibroblasts (active PGK1 loci) with treatment time: simultaneous treatment with 5-aza-2'-dc, 48 h, 72 h, 7 days, FIG. 7F; for activation of the silenced X chromosome: simultaneous treatment with DNMT1 inhibitor 5-aza-2'-dc, human fibroblast cells
Procedure: as §1, with “7F” for “7H”, “human fibroblast” for “mouse post-mitotic neuronal”
FIG. 7G is a graph quantifying the expression level of MeCP2 mRNA (relative to control) of reactivated human fibroblast cells having a silenced X chromosome after simultaneous treatment with DMSO (control), the DNMT1 inhibitor (5-aza-2-dc) and the HDAC inhibitor SAHA or RGFP966 for 7 days for a population of 50 cells, according to embodiments of the present invention.
(§2) Cells were stained for target mRNAs (e.g., X-linked Gpc4 mRNA, X-linked MeCP2 mRNA, or as indicated) and siRNA-targeted mRNA by FISH and imaged. Images were then analyzed using Matlab R2013b (described below). In the case of siRNA targeting, cells were selected if the copy number of the targeted mRNA was less than 30% of the level of the no siRNA treated cells and if they induced Xist expression. Within these cells, the copy number of target mRNAs were quantified using a peak finding method (described below) and compared across conditions. The mRNA levels were quantified for 50 individual cells.
The number of active X chromosomes was determined by RNA FISH with probes against the intronic region of Pgk1/PGK1 RNA using smFISH. The spots were then identified using a 2D peak finding algorithm that identifies local maximal signals within the cell. Once regional maxima were identified, the number of spots was counted for each cell. Cells were selected in the G1 phase of the cell cycle by co-immunostaining the cells with Cyclin E antibodies (Abcam; ab33911 for mouse cells; ab32103 for human cells) and selecting Cyclin E positive cells.

[2] = tested on: human iPS-derived neurons; experiment: X chromosome reactivation (PGK1 and MeCP2 mRNA staining) in human iPS-derived neurons having a silenced X chromosome; assay type: cell-based; conditions: simultaneous treatment with DNMT1 inhibitor 5-aza-2'-dc
From the text: FIG. 7K is a graph quantifying the expression level of MeCP2 mRNA in human iPSC-derived neurons having a silenced X chromosome after simultaneous treatment with the DNMT1 inhibitor (5-aza-2-dc) and the HDAC inhibitor SAHA for 7 days for a population of 50 cells, with the relative expression calculated by normalizing the neurons (two spots of active PGK1 loci) to non-reactivated (treated) neurons (one spot of active PGK1 locus), according to embodiments of the present invention.
as §2
The number of active X chromosomes was determined by RNA FISH with probes against the intronic region of Pgk1/PGK1 RNA using smFISH. […] Once regional maxima were identified, the number of spots was counted for each cell. […]

[3] = tested on: mouse lymphatic fibroblast (MLF) cells; experiment: X-chromosome reactivation assay (single molecule RNA FISH of X-linked mRNA) in MLF cells having silenced X genes; assay type: cell-based; conditions: for reactivation of silenced X-chromosome gene Gpc4 (Gpc4 mRNA) compared with Scriptaid alone: in combination with one of the DNMT1 inhibitors 5-aza, 5-aza-2'-dc, RG108 or SGI-1027, FIGS. 7A-7B
Procedure: Coverslips from siRNA transfection or inhibitor treatment were fixed in Histochoice (Sigma) for 10 min, washed thoroughly in PBS, and dehydrated in ethanol for storage until FISH staining. Single molecule RNA Fluorescence in situ hybridization (FISH) experiments were done using QuantiGene ViewRNA ISH Cell Assay (Affymetrix) and QuantiGene ViewRNA ISH Cell 740 Module (Affymetrix) according to manufacturer's protocol. Specifically, cells fixed on coverslips were first permeabilized with Detergent Solution QC at room temperature for 5 min, and then incubated with desired mixture of probe set (Affymetrix) in Probe Set Diluent QF at 40° C. for 3 h, followed by incubated with PreAmplifier Mix at 40° C. for 30 min, Amplifier Mix at 40° C. for 30 min, and Label Probe Mix at 40° C. for 30 min sequentially. For DAPI staining, coverslips were incubated in 30 nM DAPI in PBS at room temperature for 15-20 min. Probe sets and conjugated fluorophores (excitation wavelengths) for FISH were TYPE 4-GPC4, MECP2, SMC1A (488 nm), TYPE 10-ATRX (740 nm), and TYPE 6-EMD (650 nm). Cells were stained for target mRNAs (e.g., X-linked Gpc4 mRNA, X-linked MeCP2 mRNA, or as indicated) and siRNA-targeted mRNA by FISH and imaged. Images were then analyzed using Matlab R2013b (described below). In the case of siRNA targeting, cells were selected if the copy number of the targeted mRNA was less than 30% of the level of the no siRNA treated cells and if they induced Xist expression. Within these cells, the copy number of target mRNAs were quantified using a peak finding method (described below) and compared across conditions. The mRNA levels were quantified for 50 individual cells. All image analysis was carried out using Matlab (version R2013b) utilizing built-in functions from the Image Processing toolbox. […] Once regional maxima were identified, the number of spots was counted for each cell. The percentage of X-reactivation is calculated by normalizing the average number of spots of each condition to the average number of spots in untreated cells, and subtracting the value by 1.

[4] = tested on: mouse lymphatic fibroblast (MLF) cells; conditions: 1 uM, FIG. 7E
Procedure: With reference to FIG. 7E, MLF cells having a silenced X chromosome were assayed for reactivation of the Gpc4 gene after incubation with SAHA at 2 uM, RGFP966 at 3 uM, RG2833 (RGFP109) at 300 nM, PCI-24781 (Abexinostat) at 300 nM, CUDC-101 at 400 nM, Resminostat at 100 nM, Mocetinostat (MGCD0103) at 10 uM, HPOB (4-[(hydroxyamino)carbonyl]-N-(2-hydroxyethyl)-N-phenyl-benzeneacetamide) at 5 uM, Entinostat (MS0275) at 2 uM, Droxinostat at 20 uM, 4SC-202 at 2 uM, Trichostatin A (TSA) at 5 uM, Rocilinostat (ACY-1215) at 100 nM, Quisinostat (JNJ-26481585) at 100 nM, or Pracinostat (SB939) at 1 uM.
5,000 Mouse MLF cells were plated on a poly-D-lysine (Sigma) and 0.2% gelatin (Sigma)-coated #1.5 coverslip placed into wells of a 24-well plate containing HEK media (DMEM, 10% Gemini Benchmark FBS, 1×L-glutamine, 1× sodium pyruvate, 1×NEAA, lx Pen/Strep; Life Technologies unless otherwise indicated). After 16 hours, inhibitors were added into the media and incubated the cells for 48 hours. Unless, otherwise indicated, the inhibitors and the concentration used were: 5-Azacytidine (6 μM; Sigma, A2385), 5-Aza-2′-deoxycytidine (0.3 μM; Sigma, A3656), RG 108 (200 μM; Abcam, ab141013), Trichostatin A (5 μM; Sigma, T8552), and Scriptaid (100 nM; Sigma, S7817).

O=C(CCCCCCC(=O)Nc1ccccc1)NO [SAHA]
activation of the silenced X chromosome [1]: activation of the X chromosome | percentage of reactivated human fibroblasts (active PGK1 loci) with treatment time (human fibroblast cells): increase in reactivation | activation of the silenced X chromosome (human fibroblast cells): activation (or re-activation) of the X chromosome | activation of the silenced X chromosome [2]: activation of the X chromosome

O=C(CCCCCN1C(=O)c2cccc3cccc(c23)C1=O)NO [Scriptaid]
reactivation of the Xist-dependent silent Gpc4 gene as measured by levels of Gpc4 mRNA ([3]; HDAC inhibitor alone, FIGS. 7A-7B): expression of Gpc4; also recorded: reactivation of the Xist-dependent silent Gpc4 gene | reactivation of silenced X-chromosome gene Gpc4 (Gpc4 mRNA) compared with Scriptaid alone [3]: reactivated to a higher level of reactivation

Nc1cc(F)ccc1NC(=O)/C=C/c1cnn(C/C=C/c2ccccc2)c1 [RGFP966]
activation of the silenced X chromosome [1]: activation of the X chromosome | percentage of reactivated human fibroblasts (active PGK1 loci) with treatment time (human fibroblast cells): increase in reactivation | activation of the silenced X chromosome (human fibroblast cells): activation (or re-activation) of the X chromosome | activation of the silenced X chromosome [2]: activation of the X chromosome

CC(/C=C/C(=O)NO)=C\[C@@H](C)C(=O)c1ccc(N(C)C)cc1 [Trichostatin A]
reactivation of silenced X-chromosome gene Gpc4 (Gpc4 mRNA) compared with Scriptaid alone [3]: reactivated to a higher level of reactivation

CCCCc1nc2cc(/C=C/C(=O)NO)ccc2n1CCN(CC)CC [Pracinostat]
cytotoxicity (cell death) [4]: cytotoxic, causing cell death
